Reference: PMC6691788, “Design and synthesis of phthalazine-based compounds as potent anticancer agents with potential antiangiogenic activity via VEGFR-2 inhibition” (Journal of Enzyme Inhibition and Medicinal Chemistry, 2019)

Assays:
Assay in all cases: NCI 60 cell panel SRB screen
CAKI-1 = format: cell-based, human; details: Homo sapiens; CAKI-1, single dose 10 μM; read-out: percent cell growth promotion
SN12C = format: cell-based; details: Homo sapiens
HOP-62 = format: cell-based; details: Homo sapiens
HCT-15 = format: cell-based; details: Homo sapiens
SR = format: cell-based; details: Homo sapiens
BT-549 = format: cell-based; details: Homo sapiens
HCC-2998 = format: cell-based; details: Homo sapiens
MCF7 = format: cell-based; details: Homo sapiens
SK-OV-3 = format: cell-based; details: Homo sapiens
KM12 = format: cell-based; details: Homo sapiens
SF-268 = format: cell-based; details: Homo sapiens
HCT-116 = format: cell-based; details: Homo sapiens
LOX IMVI = format: cell-based; details: Homo sapiens
RPMI-8226 = format: cell-based; details: Homo sapiens
SNB-75 = format: cell-based; details: Homo sapiens
CCRF-CEM = format: cell-based, human
ACHN = format: cell-based; details: Homo sapiens
HS 578T = format: cell-based; details: Homo sapiens
OVCAR-5 = format: cell-based; details: Homo sapiens
DU-145 = format: cell-based; details: Homo sapiens
U251 = format: cell-based; details: Homo sapiens, U-251
SNB-19 = format: cell-based; details: Homo sapiens
K-562 = format: cell-based; details: Homo sapiens, K562
UACC-62 = format: cell-based
MDA-MB 231/ATCC = format: cell-based; details: Homo sapiens
HOP-92 = format: cell-based; details: Homo sapiens
UACC-257 = format: cell-based; details: Homo sapiens
T-47D = format: cell-based; details: Homo sapiens, T47D
MOLT-4 = format: cell-based; details: Homo sapiens
NCI-H322M = format: cell-based; details: Homo sapiens
NCI-H226 = format: cell-based; details: Homo sapiens
TK-10 = format: cell-based, human; details: Homo sapiens; TK-10, single dose 10 μM; read-out: percent cell growth promotion
[1] = 5 log dose, 48 h, read-out: LC50 (the source's name)
[2] = single dose 10 μM, read-out: percent cell growth promotion
[3] = read-out: percent cell growth promotion

Compound `COc1cccc(NCc2nnc(Nc3ccc(Cl)cc3)c3ccccc23)c1` [Compound 16d, N-(4-Chlorophenyl)-4-((3-methoxyphenylamino)methyl)phthalazin-1-amine] has an activity at 10 µM (CAKI-1) of 9.01%, a GI50 (SN12C; 5 log dose) of 2.52 µM and an IC (TGI) (SN12C; 5 log dose) of 11 µM. The CC50 (SN12C; [1]) was > 25 µM, the activity at 10 µM (SN12C; [2]) was 14.5% and the GI50 (HOP-62; HOP-62, 5 log dose) was 2.06 µM. The IC (TGI) (HOP-62; HOP-62, 5 log dose) was 8.48 µM, the CC50 (HOP-62; HOP-62, 5 log dose, 48 h, read-out: LC50 (the source's name)) was > 25 µM and the activity at 10 µM (HOP-62; HOP-62, single dose 10 μM, read-out: percent cell growth promotion) was -17.1%. For the same compound, the GI50 (HCT-15; HCT-15, 5 log dose) was 1.78 µM, the IC (TGI) (HCT-15; HCT-15, 5 log dose) was 7.56 µM and the CC50 (HCT-15; HCT-15, 5 log dose, 48 h, read-out: LC50 (the source's name)) was > 25 µM. It also gave an activity at 10 µM (HCT-15; HCT-15, single dose 10 μM, read-out: percent cell growth promotion) of -18.1%, a GI50 (SR; 5 log dose) of 0.97 µM and an IC (TGI) (SR; 5 log dose) of 8.85 µM. The CC50 (SR; [1]) was > 25 µM, the activity at 10 µM (SR; [2]) was -24.5% and the GI50 (BT-549; BT-549) was 1.9 µM. The IC (TGI) (BT-549; BT-549, read-out: TGI) was 7.42 µM, the activity at 10 µM (BT-549; BT-549, read-out: percent cell growth promotion) was -12.2% and the CC50 (BT-549; BT-549, 5 log dose, 48 h, read-out: LC50 (the source's name)) was 24.8 µM. For the same compound, the GI50 (HCC-2998; HCC-2998, 5 log dose) was 3.44 µM, the IC (TGI) (HCC-2998; HCC-2998, 5 log dose) was 8.79 µM and the LC50 (50% lethal concentration) (HCC-2998; HCC-2998, 5 log dose, 48 h) was 22.5 µM. The activity at 10 µM (HCC-2998; HCC-2998, single dose 10 μM, read-out: percent cell growth promotion) was 2.79%, the GI50 (MCF7; MCF7) was 0.93 µM and the IC (TGI) (MCF7; MCF7, read-out: TGI) was 6.4 µM. It also gave an activity at 10 µM (MCF7; MCF7, read-out: percent cell growth promotion) of -1.96%, a CC50 (MCF7; MCF7, 5 log dose, 48 h, read-out: LC50 (the source's name)) of 24.9 µM and a GI50 (SK-OV-3; SK-OV-3, 5 log dose) of 1.13 µM. The IC (TGI) (SK-OV-3; SK-OV-3, 5 log dose) was 8.19 µM, the CC50 (SK-OV-3; SK-OV-3, 5 log dose, 48 h, read-out: LC50 (the source's name)) was > 25 µM and the activity at 10 µM (SK-OV-3; SK-OV-3, single dose 10 μM, read-out: percent cell growth promotion) was -11.9%. For the same compound, the GI50 (KM12; KM12, 5 log dose) was 0.13 µM, the IC (TGI) (KM12; KM12, 5 log dose) was 6.52 µM and the CC50 (KM12; KM12, 5 log dose, 48 h, read-out: LC50 (the source's name)) was 18.6 µM. It also gave an activity at 10 µM (KM12; KM12, single dose 10 μM, read-out: percent cell growth promotion) of -24.9%, a GI50 (SF-268; SF-268, 5 log dose) of 2.05 µM and an IC (TGI) (SF-268; SF-268, 5 log dose) of 10.5 µM. For the same compound, the CC50 (SF-268; SF-268, 5 log dose, 48 h, read-out: LC50 (the source's name)) was > 25 µM, the activity at 10 µM (SF-268; SF-268, single dose 10 μM, read-out: percent cell growth promotion) was 2.52% and the GI50 (HCT-116; HCT-116, 5 log dose) was 0.88 µM. It also gave an IC (TGI) (HCT-116; HCT-116, 5 log dose) of 4.2 µM, an LC50 (lethal concentration 50%) (HCT-116; HCT-116, 5 log dose, 48 h) of 11.2 µM and an activity at 10 µM (HCT-116; HCT-116, single dose 10 μM, read-out: percent cell growth promotion) of -44.2%. It also gave a GI50 (LOX IMVI) of 1.11 µM, a CC50 (LOX IMVI; [1]) of 12.8 µM and an IC (TGI) (LOX IMVI; read-out: TGI) of 4.83 µM. The activity at 10 µM (LOX IMVI; [3]) was -58.7%, the GI50 (RPMI-8226; RPMI-8226, 5 log dose) was 1.48 µM and the IC (TGI) (RPMI-8226; RPMI-8226, 5 log dose) was 7.51 µM. The CC50 (RPMI-8226; RPMI-8226, 5 log dose, 48 h, read-out: LC50 (the source's name)) was > 25 µM, the activity at 10 µM (RPMI-8226; RPMI-8226, single dose 10 μM, read-out: percent cell growth promotion) was -28.1% and the GI50 (SNB-75; SNB-75, 5 log dose) was 0.29 µM. It also gave an IC (TGI) (SNB-75; SNB-75, 5 log dose) of 5.27 µM, an LC50 (concentration killing 50% of cells) (SNB-75; SNB-75, 5 log dose, 48 h) of 23.1 µM and an activity at 10 µM (SNB-75; SNB-75, single dose 10 μM, read-out: percent cell growth promotion) of -6.06%. For the same compound, the TGI (CCRF-CEM; 5 log dose) was 13.4 µM, the GI50 (CCRF-CEM; Homo sapiens, 5 log dose) was 2.73 µM and the CC50 (CCRF-CEM; Homo sapiens, 5 log dose, 48 h, read-out: LC50 (the source's name)) was > 25 µM. The activity at 10 µM (CCRF-CEM; Homo sapiens, single dose 10 μM, read-out: percent cell growth promotion) was -4.42%, the GI50 (ACHN; 5 log dose) was 1.56 µM and the IC (TGI) (ACHN; 5 log dose) was 24.4 µM. For the same compound, the CC50 (ACHN; [1]) was > 25 µM, the activity at 10 µM (ACHN; [2]) was -5.35% and the GI50 (HS 578T; Hs-578T) was 2.9 µM. For the same compound, the IC (TGI) (HS 578T; Hs-578T, read-out: TGI) was 11.5 µM, the activity at 10 µM (HS 578T; Hs-578T, read-out: percent cell growth promotion) was 0.54% and the CC50 (HS 578T; HS 578T, 5 log dose, 48 h, read-out: LC50 (the source's name)) was > 25 µM. For the same compound, the GI50 (OVCAR-5; OVCAR-5, 5 log dose) was 3.38 µM, the IC (TGI) (OVCAR-5; OVCAR-5, 5 log dose) was 11.8 µM and the CC50 (OVCAR-5; OVCAR-5, 5 log dose, 48 h, read-out: LC50 (the source's name)) was > 25 µM. It also gave an activity at 10 µM (OVCAR-5; OVCAR-5, single dose 10 μM, read-out: percent cell growth promotion) of 8.44%, a GI50 (DU-145; DU-145, 5 log dose) of 2.4 µM and an IC (TGI) (DU-145; DU-145, 5 log dose) of 6.52 µM. The CC50 (DU-145; DU-145, 5 log dose, 48 h, read-out: LC50 (the source's name)) was 17.2 µM, the activity at 10 µM (DU-145; DU-145, single dose 10 μM, read-out: percent cell growth promotion) was 8.3% and the GI50 (U251; U251, 5 log dose) was 2.78 µM. The IC (TGI) (U251; U251, 5 log dose) was 6.54 µM, the CC50 (U251; U251, 5 log dose, 48 h, read-out: LC50 (the source's name)) was > 25 µM and the activity at 10 µM (U251; U251, single dose 10 μM, read-out: percent cell growth promotion) was -56.2%. For the same compound, the GI50 (SNB-19; SNB-19, 5 log dose) was 3.5 µM, the IC (TGI) (SNB-19; SNB-19, 5 log dose) was 13 µM and the CC50 (SNB-19; SNB-19, 5 log dose, 48 h, read-out: LC50 (the source's name)) was > 25 µM. The activity at 10 µM (SNB-19; SNB-19, single dose 10 μM, read-out: percent cell growth promotion) was 17.8%, the GI50 (K-562; K-562, 5 log dose) was 1.49 µM and the IC (TGI) (K-562; K-562, 5 log dose) was 13.1 µM. For the same compound, the CC50 (K-562; K-562, 5 log dose, 48 h, read-out: LC50 (the source's name)) was > 25 µM, the activity at 10 µM (K-562; K-562, single dose 10 μM, read-out: percent cell growth promotion) was 2.2% and the GI50 (UACC-62; Homo sapiens, UACC-62) was 1 µM. The activity at 10 µM (UACC-62; Homo sapiens, UACC-62, read-out: percent cell growth promotion) was -29.2%, the CC50 (UACC-62; Homo sapiens, UACC-62, 5 log dose, 48 h, read-out: LC50 (the source's name)) was 20.1 µM and the TGI (UACC-62; UACC-62, 5 log dose) was 5.76 µM. For the same compound, the GI50 (MDA-MB 231/ATCC; MDA-MB-231) was 1.32 µM, the IC (TGI) (MDA-MB 231/ATCC; MDA-MB-231, read-out: TGI) was 6.32 µM and the activity at 10 µM (MDA-MB 231/ATCC; MDA-MB-231, read-out: percent cell growth promotion) was -27.1%. The CC50 (MDA-MB 231/ATCC; MDA-MB-231, MDA-MDA 231/ATCC, 5 log dose, 48 h, read-out: LC50 (the source's name)) was 19.7 µM, the GI50 (HOP-92; HOP-92, 5 log dose) was 0.32 µM and the IC (TGI) (HOP-92; HOP-92, 5 log dose) was 2.91 µM. The CC50 (HOP-92; HOP-92, 5 log dose, 48 h, read-out: LC50 (the source's name)) was > 25 µM, the activity at 10 µM (HOP-92; HOP-92, single dose 10 μM, read-out: percent cell growth promotion) was -32.8% and the GI50 (UACC-257; UACC-257) was 2.04 µM. For the same compound, the IC (TGI) (UACC-257; UACC-257, read-out: TGI) was 5.28 µM, the activity at 10 µM (UACC-257; UACC-257, read-out: percent cell growth promotion) was -39.7% and the CC50 (UACC-257; UACC-257, 5 log dose, 48 h, read-out: LC50 (the source's name)) was 11.6 µM. The GI50 (T-47D) was 0.64 µM, the IC (TGI) (T-47D; read-out: TGI) was 6.56 µM and the activity at 10 µM (T-47D; [3]) was -8.49%. For the same compound, the CC50 (T-47D; T-47D, 5 log dose, 48 h, read-out: LC50 (the source's name)) was > 25 µM, the GI50 (MOLT-4; MOLT-4, 5 log dose) was 1.1 µM and the IC (TGI) (MOLT-4; MOLT-4, 5 log dose) was 7.57 µM. For the same compound, the CC50 (MOLT-4; MOLT-4, 5 log dose, 48 h, read-out: LC50 (the source's name)) was > 25 µM, the activity at 10 µM (MOLT-4; MOLT-4, single dose 10 μM, read-out: percent cell growth promotion) was -27.2% and the GI50 (NCI-H322M; 5 log dose) was 1.4 µM. The IC (TGI) (NCI-H322M; 5 log dose) was 7.85 µM, the CC50 (NCI-H322M; [1]) was > 25 µM and the activity at 10 µM (NCI-H322M; [2]) was 3.32%. The GI50 (NCI-H226; NCI-H226, 5 log dose) was 0.95 µM, the IC (TGI) (NCI-H226; NCI-H226, 5 log dose) was 6.82 µM and the CC50 (NCI-H226; NCI-H226, 5 log dose, 48 h, read-out: LC50 (the source's name)) was > 25 µM. It also gave an activity at 10 µM (NCI-H226; NCI-H226, single dose 10 μM, read-out: percent cell growth promotion) of -22.9% and an activity at 10 µM (TK-10) of -40.9%.
